Data taken from the OPERA property sets (Mansouri et al. 2018).
Converted amounts (≈) assume the structure as drawn.

Settings: 25 °C

| Compound | solubility |
| --- | --- |
| CCCCCCl | 1.85 mM (≈ 197 µg/mL) |
| Cc1cc(O)ccc1Cl | 26.9 mM (≈ 3830 µg/mL) |
| CCCCC(=O)OC | 43.6 mM (≈ 5060 µg/mL) |
| c1ccc(NNc2ccccc2)cc1 | 1.2 mM (≈ 221 µg/mL) |
| CC(O)CNCC(C)O (centres undefined) | 6490 mM (≈ 865000 µg/mL) |
| Nc1cccc(C(F)(F)F)c1 | 33.9 mM (≈ 5450 µg/mL) |
| CCCCCCCl | 0.754 mM (≈ 91 µg/mL) |
| Brc1ccc2ccccc2c1 | 0.0398 mM (≈ 8.24 µg/mL) |

The remaining lines, values ahead:

| solubility | Compound |
| --- | --- |
| 0.0978 mM (≈ 19 µg/mL) | COC(=O)c1ccc(C(=O)OC)cc1 |
| 579 mM (≈ 58600 µg/mL) | CCCNCCC |
| 3.09 mM (≈ 329 µg/mL) | CCC(C)(C)Cl |
| 0.00912 mM (≈ 2.87 µg/mL) | Brc1cccc(Br)c1Br |
| 2.14 mM (≈ 351 µg/mL) | CCCOC(=O)c1ccccc1 |
| 19.9 mM (≈ 2410 µg/mL) | CCNc1ccccc1 |
